Read-outs that look alike come from different tables or passages of the source.
What was measured:
[1] = test system: rat carrageenan-induced foot pad edema; experiment: Rat carrageenan-induced foot pad edema assay; type: in vivo, rats; conditions: 10 mg/kg oral
Protocol: Male Sprgue-Dawley rats (190–220 g) were fasted with free access to water at least 16 h prior to experiments. The rats were dosed orally with a 1 ml suspension of test compound in vehicle (0.5% methyl cellulose and 0.025% Tween-20) or with vehicle alone. One hour later a subplantar injection of 0.1 ml of 1% solution of caarageenan in 0.9% strile saline was administered to the right hind foot pad. Paw volume was measured with a displacement plethysmometer 2, 3, and 4 h after caarageenan injection.

Cyclooxygenase-2 = target: T1, Cyclooxygenase-2 (Mus musculus, UniProt Q05769); experiment: COX-2 assay: LPS-stimulated PGE2 production in mouse peritoneal macrophages (RIA); type: cell-based, mice; conditions: for IC50: mouse peritoneal macrophages, LPS 1 mg/L 9 h, PGE2 by RIA; for COX-1/COX-2: ratio of IC50 COX-1 to IC50 COX-2
T1 construct: endogenous in cells; host or cells: thioglycollate-elicited peritoneal macrophages of male C57BL-6J mice
T1 sequence (Q05769 18-604): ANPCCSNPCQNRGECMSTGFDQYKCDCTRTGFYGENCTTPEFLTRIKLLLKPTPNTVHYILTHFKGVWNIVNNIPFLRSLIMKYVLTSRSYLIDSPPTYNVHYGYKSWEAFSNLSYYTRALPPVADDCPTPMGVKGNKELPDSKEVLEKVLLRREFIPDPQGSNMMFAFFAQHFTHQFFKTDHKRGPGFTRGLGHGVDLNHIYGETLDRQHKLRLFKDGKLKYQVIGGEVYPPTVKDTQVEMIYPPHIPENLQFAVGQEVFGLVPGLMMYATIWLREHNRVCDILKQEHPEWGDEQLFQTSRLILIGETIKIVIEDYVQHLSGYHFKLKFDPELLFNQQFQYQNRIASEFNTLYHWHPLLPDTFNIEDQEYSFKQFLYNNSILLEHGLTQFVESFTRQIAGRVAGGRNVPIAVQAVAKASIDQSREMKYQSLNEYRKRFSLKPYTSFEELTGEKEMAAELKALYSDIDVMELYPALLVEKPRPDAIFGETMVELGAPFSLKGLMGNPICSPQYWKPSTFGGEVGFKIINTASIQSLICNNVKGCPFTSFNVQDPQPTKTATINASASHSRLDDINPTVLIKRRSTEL
Protocol: Cell culture: Adherent macrophages were harvested from the peritoneal cells of male mice (C57BL-6J, Level 2, from Experiment Animal Center, Academy of Military Medical Science) 3 d after the injection (ip) of brewer thioglycollate medium (5 mL/100 g body weight). […] After settlement for 2˜3 h, non-adherent cells were washed by D-Hanks' balanced salt solution. […] Cell viability was examined by trypan blue dye exclusion. All incubation procedures were performed with 5% CO2 in humidified air at 37° C.
COX-2 assay: Macrophages were incubated with test compound at different concentrations or solvent (Me2SO) for 1 h and were stimulated with LPS 1 mg/L for 9 h. The amount of PGE2 in supernatants was measured by RIA. The inhibitory ratio was calculated using the same formula as in COX-1 assay section. Cs, Ct, Cc refer to PGE2 concentration in supernatants of LPS, test compound, and control groups, respectively.
(§1) [formula] Cs, Ct, Cc refer to 6-keto-PGF1[…] concentration in supernatants of calcimycin, test compound, and control groups, respectively.
(§2) Statistical analysis: Data were expressed as the mean±SD of more than three independent experiments. Dose-inhibitory effect curves were fit through “uphill dose response curves, variable slope” using Prism, GraphPad version3.00: […]

Cyclooxygenase-1 = target: T2, Cyclooxygenase-1 (Mus musculus, UniProt P22437); experiment: COX-1 assay: calcimycin-stimulated 6-keto-PGF1 production in mouse peritoneal macrophages (RIA); type: cell-based, mice; conditions: calcimycin 1 μmol/L 1 h, 6-keto-PGF1 by RIA
T2 construct: endogenous in cells; host or cells: thioglycollate-elicited peritoneal macrophages of male C57BL-6J mice
T2 sequence (P22437 27-602): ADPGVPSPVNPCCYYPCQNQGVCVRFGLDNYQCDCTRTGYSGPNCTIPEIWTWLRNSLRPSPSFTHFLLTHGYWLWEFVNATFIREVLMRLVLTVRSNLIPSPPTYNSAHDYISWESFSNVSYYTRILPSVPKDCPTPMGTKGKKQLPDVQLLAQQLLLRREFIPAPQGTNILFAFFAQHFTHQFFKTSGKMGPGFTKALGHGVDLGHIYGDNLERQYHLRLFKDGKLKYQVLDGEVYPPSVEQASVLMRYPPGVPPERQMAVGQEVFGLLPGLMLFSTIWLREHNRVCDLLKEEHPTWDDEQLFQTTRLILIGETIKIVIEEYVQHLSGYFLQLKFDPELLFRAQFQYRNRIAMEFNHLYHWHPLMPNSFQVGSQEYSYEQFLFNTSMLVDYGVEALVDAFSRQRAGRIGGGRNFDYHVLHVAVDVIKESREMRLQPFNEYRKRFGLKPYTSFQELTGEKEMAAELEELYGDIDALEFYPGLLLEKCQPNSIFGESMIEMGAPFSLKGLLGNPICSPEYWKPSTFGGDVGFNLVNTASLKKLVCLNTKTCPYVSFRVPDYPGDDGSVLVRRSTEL
Protocol: Cell culture: Adherent macrophages were harvested from the peritoneal cells of male mice (C57BL-6J, Level 2, from Experiment Animal Center, Academy of Military Medical Science) 3 d after the injection (ip) of brewer thioglycollate medium (5 mL/100 g body weight). Shortly, peritoneal cells obtained from 3˜4 mice were mixed and seeded in 48 well cell culture cluster (Costar) at a cell density of 1×10^9 cell/L in RPMI-1640 supplemented with 5% (v/v) newborn calf serum, 100 ku/L penicillin and […] streptomycin. After settlement for 2˜3 h, non-adherent cells were washed by D-Hanks' balanced salt solution. Then macrophages were cultured in RPMI-1640 without serum. Almost all of adherent cells were macrophages as assessed by Giemsa staining. Cell viability was examined by trypan blue dye exclusion. All incubation procedures were performed with 5% CO2 in humidified air at 37° C.
COX-1: assay Macrophages were incubated with test compound at different concentrations or solvent (Me2SO) for 1 h and were stimulated with calcimycin 1 μmol·L^−1 for 1 h. The amount of 6-keto-PGF1[…] (a stable metabolite of PGI2) in supernatants was measured by RIA according to manufacturer's guide. The inhibitory ratio was calculated as
as §1, §2

[2] = 3 h after carrageenan, read-out: inhibitory percentage of edema, 3 hr
[3] = 4 h after carrageenan, read-out: inhibitory percentage of edema, 4 hr

SMILES	inhibition at 10 mg/kg [1, 2] [%]	inhibition at 10 mg/kg [1, 3] [%]	IC50 (Cyclooxygenase-2) [nM]	IC50 (Cyclooxygenase-1) [nM]	COX-1/COX-2 (Cyclooxygenase-2)
CCCN1CC(c2ccc(C)cc2)=C(c2ccc(S(C)(=O)=O)cc2)C1=O [Example 104, N-Propyl-3-(4-methylsulfonylphenyl)-4-(4-methylphenyl)-2,5-dihydropyrrole-2-one]	24.5	19.3			
Cc1ccc(C2=C(c3ccc(S(C)(=O)=O)cc3)C(=O)N(C)C2)cc1 [Example 105, N-Methyl-3-(4-methylsulfonylphenyl)-4-(4-methylphenyl)-2,5-dihydropyrrole-2-one]	39.2	48.2	782	> 10000	
CCCN1CC(c2ccc(F)cc2)=C(c2ccc(S(C)(=O)=O)cc2)C1=O [Example 106, N-Propyl-3-(4-methylsulfonylphenyl)-4-(4-fluorophenyl)-2,5-dihydropyrrole-2-one]			611	> 10000	
CS(=O)(=O)c1ccc(C2=C(c3ccc(Cl)cc3)CN(C3CC3)C2=O)cc1 [Example 107, N-Cyclopropyl-3-(4-methylsulfonylphenyl)-4-(4-chlorophenyl)-2,5-dihydropyrrole-2-one]			421	> 10000	
CS(=O)(=O)c1ccc(C2=C(c3cccc(Cl)c3)CN(C3CC3)C2=O)cc1 [Example 108, N-Cyclopropyl-3-(4-methylsulfonylphenyl)-4-(3-chlorophenyl)-2,5-dihydropyrrole-2-one]	36.4	43.5	783	> 10000	
CN1CC(c2cccc(Cl)c2)=C(c2ccc(S(C)(=O)=O)cc2)C1=O [Example 109, N-Methyl-3-(4-methylsulfonylphenyl)-4-(3-chlorophenyl)-2,5-dihydropyrrole-2-one]			421	> 10000	
CCCN1CC(c2cccc(Cl)c2)=C(c2ccc(S(C)(=O)=O)cc2)C1=O [Example 110, N-Propyl-3-(4-methylsulfonylphenyl)-4-(3-chlorophenyl)-2,5-dihydropyrrole-2-one]	25.8	36.7	783		
CS(=O)(=O)c1ccc(C2=C(c3ccccc3)CN(C3CCCCC3)C2=O)cc1 [Example 112, N-Cyclohexyl-3-(4-methylsulfonylphenyl)-4-phenyl-2,5-dihydropyrrole-2-one]			1790	> 10000	
CS(=O)(=O)c1ccc(C2=C(c3cccc(F)c3)CN(C3CC3)C2=O)cc1 [Example 113, N-Cyclopropyl-3-(4-methylsulfonylphenyl)-4-(3-fluorophenyl)-2,5-dihydropyrrole-2-one]			998	> 10000	
CN1CC(c2ccc(S(C)(=O)=O)cc2)=C(c2ccccc2)C1=O [Example 114, N-Methyl-3-phenyl-4-(4-methylsulfonylphenyl)-2,5-dihydropyrrole-2-one]			14.2	1120	78.9
CCCN1CC(c2ccc(S(C)(=O)=O)cc2)=C(c2ccccc2)C1=O [Example 115, N-Propyl-3-phenyl-4-(4-methylsulfonylphenyl)-2,5-dihydropyrrole-2-one]	22.8	27.2	19.5	149	7.6
CS(=O)(=O)c1ccc(C2=C(c3ccccc3)C(=O)N(C3CC3)C2)cc1 [Example 116, N-Cyclopropyl-3-phenyl-4-(4-methylsulfonylphenyl)-2,5-dihydropyrrole-2-one]			25.3	468	18.5
CCCN1CC(c2ccc(S(C)(=O)=O)cc2)=C(c2cccc(C)c2)C1=O [Example 121, N-Propyl-3-(3-methylphenyl)-4-(4-methylsulfonylphenyl)-2,5-dihydropyrrole-2-one]			19.3	119	
Cc1cccc(C2=C(c3ccc(S(C)(=O)=O)cc3)CN(C3CC3)C2=O)c1 [Example 126, N-Cyclopropyl-3-(3-methylphenyl)-4-(4-methylsulfonylphenyl)-2,5-dihydropyrrole-2-one]			15.5	221	14.3
CS(=O)(=O)c1ccc(C2=C(c3ccc(Cl)cc3)C(=O)N(C3CCCCC3)C2)cc1 [Example 127, N-Cyclohexyl-3-(4-chlorophenyl)-4-(4-methylsulfonylphenyl)-2,5-dihydropyrrole-2-one]			20.7	143	
CS(=O)(=O)c1ccc(C2=C(c3ccc(F)cc3)C(=O)N(C3CC3)C2)cc1 [Example 128, N-Cyclopropyl-3-(4-fluorophenyl)-4-(4-methylsulfonylphenyl)-2,5-dihydropyrrole-2-one]			66.4	> 10000	
CCCN1CC(c2cccc(Br)c2)=C(c2ccc(S(N)(=O)=O)cc2)C1=O [Example 132, N-Propyl-3-(4-aminosulfonylphenyl)-4-(3-bromophenyl)-2,5-dihydropyrrole-2-one]			998	> 10000	
CCCN1CC(c2cccc(Cl)c2)=C(c2ccc(S(N)(=O)=O)cc2)C1=O [Example 133, N-Propyl-3-(4-aminosulfonylphenyl)-4-(3-chlorophenyl)-2,5-dihydropyrrole-2-one]			482		
CCCN1CC(c2cccc(F)c2)=C(c2ccc(S(N)(=O)=O)cc2)C1=O [Example 135, N-Propyl-3-(4-aminosulfonylphenyl)-4-(3-fluorophenyl)-2,5-dihydropyrrole-2-one]			564	> 10000	
NS(=O)(=O)c1ccc(C2=C(c3cccc(Cl)c3)CN(C3CC3)C2=O)cc1 [Example 137, N-Cylcopropyl-3-(4-aminosulfonylphenyl)-4-(3-chlorophenyl)-2,5-dihydropyrrole-2-one]			1690	> 10000	
Cc1cccc(C2=C(c3ccc(S(N)(=O)=O)cc3)CN(C3CC3)C2=O)c1 [Example 141, N-Cylcopropyl-3-(3-methylphenyl)-4-(4-aminosulfonylphenyl)-2,5-dihydropyrrole-2-one]			18.7	> 10000	
